According to patent publication US20120083486A1, “KIT, COMPOSITION, PRODUCT OR MEDICAMENT FOR TREATING COGNITIVE IMPAIRMENT” (ZENYAKU KOGYO KABUSHIKIKAISHA, priority 2008, published 2012):

What was measured:
[1] = test system: scopolamine-induced cognitive impairment; experiment: passive avoidance task, scopolamine-induced cognitive impairment in mice; assay type: in vivo; settings: alone, compared with 1% CMC and scopolamine group
Experimental: Eight to nine week old male ICR strain mice (Charles River Laboratories Japan, Inc.) were used in the experiment. They were housed in a cage in groups of 3 or 4 mice, in a room maintained at around 22 degree C. under 12 hour light/dark cycles. Food and water were provided ad libitum. All animal care and treatment was conducted in accordance with the Guidelines for the Care and Use of Laboratory Animals, established at the Central Research Laboratory, Zenyaku Kogyo Co., Ltd.
Compound 1 and donepezil were suspended in 1% carboxymethyl cellulose (CMC). […] For the coadministration studies of Compound 1 and donepezil, both drug suspensions were mixed together and this mixed suspension was […]. All drugs were prepared immediately before use and orally administered at a dosage of 10 ml/kg.
The passive avoidance apparatus (Neuroscience Inc.) consisted of an illuminated chamber and a larger dark chamber. Two chambers were separated by a guillotine door. Oral administration of compound 1 at doses of 0.0001 mg/kg or 0.001 mg/kg and/or donepezil at doses of 0.01 and 0.1 mg/kg was given 60 min before the acquisition trial. […] The matched control group only received the vehicle. During the acquisition trial, each mouse was placed in the illuminated chamber. Immediately after the entry into the dark chamber, the door was closed and an inescapable scrambled electric shock (100 V, 0.4 mA, 1.5 sec) was delivered through the floor grid. Twenty-four hours later, each mouse was placed in the illuminated chamber for retention trial. The interval between placement in the illuminated chamber and entry into the dark chamber was measured as step through latency (maximum 300 seconds).
A P level of <0.05 was considered indicative of statistical significance for the tests.

[2] = test system: extracellular levels of acetylcholine (ACh) in a rat hippocampus; experiment: extracellular levels of acetylcholine (ACh) in rat hippocampus (microdialysis, HPLC-ECD); assay type: in vivo; settings: alone, compared with 1% CMC group
Experimental: Food and water were provided ad libitum. All animal care and treatment was conducted in accordance with the Guidelines for the Care and Use of Laboratory Animals, established at the Central Research Laboratory, Zenyaku Kogyo Co., Ltd.

Structure (SMILES) | step-through latency in retention trial ([1]; compound 1 0.0001 mg/kg oral) | step-through latency in retention trial ([1]; compound 1 0.001 mg/kg oral, P<0.05) | extracellular level of ACh in the hippocampus ([2]; compound 1 0.001 mg/kg oral) | step-through latency in retention trial ([1]; donepezil 0.01 mg/kg oral) | step-through latency in retention trial ([1]; donepezil 0.1 mg/kg oral, P<0.05) | extracellular level of ACh in the hippocampus ([2]; donepezil 1 mg/kg oral)
O=C1N=C2C=CC=CN2C12Cc1ccccc1C2 [compound 1, spiro[imidazo[1,2-a]pyridin-2(3H)-one-3,2′-indan]] | did not significantly prolong the step-through latency | prolonged the step-through latency | did not significantly increase |  |  | 
COc1cc2c(cc1OC)C(=O)C(CC1CCN(Cc3ccccc3)CC1)C2 (stereo not drawn) [donepezil] |  |  |  | did not significantly prolong the step-through latency | prolonged the step-through latency | did not significantly increase
